According to patent US10144746B2 (GLOBAL BLOOD THERAPEUTICS, INC., priority 2015, dated 2018):

Biological target: Human plasma kallikrein (Homo sapiens (Human), UniProt P03952)
Experiment: In vitro plasma kallikrein inhibition assay (chromogenic substrate D-Pro-Phe-Arg-pNa, absorbance at 405 nm, IC50 determination)
Assay type: biochemical
Conditions: for IC50: read-out: KLKB1 pIC50 (converted)

Sequence of Human plasma kallikrein (P03952 391-638): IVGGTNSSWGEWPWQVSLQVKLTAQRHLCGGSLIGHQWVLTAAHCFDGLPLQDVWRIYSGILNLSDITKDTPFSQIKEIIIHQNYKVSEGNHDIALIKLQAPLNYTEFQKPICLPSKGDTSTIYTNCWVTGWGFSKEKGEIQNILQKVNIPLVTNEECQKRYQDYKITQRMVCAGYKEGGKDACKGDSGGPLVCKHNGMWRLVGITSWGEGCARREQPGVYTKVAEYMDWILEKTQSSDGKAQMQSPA
Sequence of Human plasma kallikrein (P03952 20-390 partner): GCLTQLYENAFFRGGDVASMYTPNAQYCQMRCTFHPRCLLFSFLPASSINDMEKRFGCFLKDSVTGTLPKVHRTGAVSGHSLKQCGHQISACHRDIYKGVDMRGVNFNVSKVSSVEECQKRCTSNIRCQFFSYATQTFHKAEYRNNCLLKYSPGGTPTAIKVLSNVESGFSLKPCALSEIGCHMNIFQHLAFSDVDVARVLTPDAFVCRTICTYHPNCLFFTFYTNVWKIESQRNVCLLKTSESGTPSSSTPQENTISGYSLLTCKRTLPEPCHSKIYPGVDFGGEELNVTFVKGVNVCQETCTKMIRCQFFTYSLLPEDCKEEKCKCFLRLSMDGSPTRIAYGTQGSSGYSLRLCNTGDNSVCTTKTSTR

| Compound | IC50 [nM] | KLKB1 pIC50 |
| --- | --- | --- |
| Nc1nccc2c(CNC(=O)c3ccc4c(c3)C3OC4c4ccc(-c5ccc(F)cc5F)cc43)cccc12 (racemic) [Example 148, (±)-N-[(1-aminoisoquinolin-5-yl)methyl]-12-(2,4-difluorophenyl)-15-oxatetracyclo [6.6.1.0^2,^7.0^9,1^4]-pentadeca-2,4,6,9,11,13-hexaene-4-carboxamide] | 85.1 |  |
| Cc1cccc(Oc2ccc3c(c2)C2OC3c3ccc(C(=O)NCc4c(C)cc(N)nc4C)cc32)c1 (racemic) [Example 159, (±)-N-[(6-amino-2,4-dimethylpyridin-3-yl)-methyl]-12-(3-methylphenoxy)-15-oxatetracyclo[6.6.1.0^2,^7.0^9,1^4] pentadeca-2,4,6,9,11,13-hexaene-4-carboxamide] | 1860 |  |
| Cc1cc(N)nc(C)c1CNC(=O)c1ccc2c(c1)[C@@H]1O[C@H]2c2ccc(Oc3ccn(C)n3)cc21 (single isomer, unassigned) [Example 185] | 2240 |  |
| Cc1cc(N)nc(C)c1CNC(=O)c1ccc2c(c1)C1OC2c2ccc(-c3ccc(F)c(F)c3F)cc21 (racemic) [Example 104] | 28.2 |  |
| Cc1cc(N)nc(C)c1CNC(=O)c1ccc2c(c1)[C@H]1O[C@@H]2c2ccc(-c3ccc(F)cc3F)cc21 |  | 4.44 |
| Cc1cc(N)nc(C)c1CNC(=O)c1ccc2c(c1)C1OC2c2cc(Nc3ccnn3C)ccc21 (racemic) [Example 54] | 457 |  |
| NC(=O)c1cccc(CNC(=O)c2ccc3c(c2)[C@@H]2O[C@H]3c3ccc(-c4ccc(F)cc4F)cc32)c1 (single isomer, unassigned) [Example 292] | 100000 |  |
| N=C(N)c1ccc(CNC(=O)c2ccc3c(c2)C2OC3c3ccc(-c4ccccc4)cc32)cc1 (racemic) [Example 189, (±)-N-[(4-carbamimidoylphenyl)methyl]-12-phenyl-15-oxatetracyclo[6.6.1.0^2,^7.0^9,1^4]-pentadeca-2,4,6,9,11,13-hexaene-4-carboxamide] | 4.57 |  |
| CC12OC(C)(c3cc(C(=O)NCc4ccc(C(=N)N)cc4)ccc31)c1cc(-c3ccc(F)cc3)ccc12 (racemic) [Example 344, N-[(4-carbamimidoylphenyl)methyl]-12-(4-fluorophenyl)-1,8-dimethyl-15-oxatetracyclo [6.6.1.0^2,^7.0^9,1^4]pentadeca-2,4,6,9,11,13-hexaene-4-carboxamide] | 427 |  |
| Cc1cc(N)nc(C)c1CNC(=O)c1ccc2c(c1)C1OC2c2ccc(-c3c(F)cc(F)cc3Cl)cc21 (racemic) [Example 146, (±)-N-[(6-amino-2,4-dimethylpyridin-3-yl)-methyl]-12-(2-chloro-4,6-difluorophenyl)-15-oxatetracyclo[6.6.1.0^2,^7.0^9,1^4] pentadeca-2,4,6,9,11,13-hexaene-4-carboxamide] | 148 |  |
| Cc1cc(N)nc(C)c1CNC(=O)c1ccc2c(c1)[C@@H]1O[C@H]2c2ccc(C(=O)c3cccc(F)c3)cc21 (single isomer, unassigned) [Example 228] | 12 |  |
| Cc1ccc(-c2ccc3c(c2)[C@H]2O[C@@H]3c3ccc(C(=O)NCc4ccc(C(=N)N)cc4)cc32)o1 (single isomer, unassigned) [Example 223] | 33.9 |  |
| Cc1cc(N)nc(C)c1CNC(=O)c1ccc2c(c1)C1OC2c2ccc(-c3ccc(F)cc3C#N)cc21 (racemic) [Example 69] | 6.31 |  |
| N=C(N)c1ccc(CNC(=O)c2ccc3c(c2)[C@@H]2O[C@H]3c3ccc(C4CC4)cc32)c(F)c1 (single isomer, unassigned) [Example 302] | 1 |  |
| Cc1cc(N)nc(C)c1CNC(=O)c1ccc2c(c1)C1OC2c2ccc(-c3ncc(F)cc3F)cc21 (racemic) [Example 116, (±)-N-[(6-amino-2,4-dimethylpyridin-3-yl)-methyl]-12-(3,5-difluoropyridin-2-yl)-15-oxatetracyclo[6.6.1.0^2,^7.0^9,1^4] pentadeca-2,4,6,9,11,13-hexaene-4-carboxamide] | 45.7 |  |
| Cc1nc(N)cc(C(C)C)c1CNC(=O)c1ccc2c(c1)[C@@H]1O[C@H]2c2ccc(-c3ccc(F)cc3F)cc21 (single isomer, unassigned) [Example 208] | 1 |  |
| CON=C(N)c1cc(F)c(CNC(=O)c2ccc3c(c2)[C@@H]2O[C@H]3c3ccc(-c4ccc(F)cc4F)cc32)c(F)c1 [Example 255, (1R,8S)-N-({2,6-difluoro-4-[N′-methoxy-carbamimidoyl]phenyl}methyl)-12-(2,4-difluorophenyl)-15-oxatetracyclo[6.6.1.0^2,^7.0^9,1^4]-pentadeca-2,4,6,9,11,13-hexaene-4-carboxamide] |  | 6.18 |
| Cc1ccc(-c2ccc3c(c2)[C@H]2O[C@@H]3c3ccc(C(=O)NCc4c(C)cc(N)nc4C)cc32)c(C#N)c1 (single isomer, unassigned) [Example 140] | 5.01 |  |
| Cc1cc(-c2ccc(F)cc2)cc2c1C1OC2c2cc(C(=O)NCc3ccc(C(=N)N)cc3)cc(F)c21 (racemic) [Example 396, (±)-N-[(4-carbamimidoylphenyl)methyl]-6-fluoro-12-(4-fluorophenyl)-10-methyl-15-oxatetracyclo[6.6.1.0^2,^7.0^9,1^4] pentadeca-2(7),3,5,9(14),10,12-hexaene-4-carboxamide] | 5.01 |  |

Next, values leading:

| IC50 [nM] | KLKB1 pIC50 | Compound |
| --- | --- | --- |
|  | 6.91 | Cc1cc(N)nc(C)c1CNC(=O)c1ccc2c(c1)C1OC2c2ccc(-c3ccccc3F)cc21 (stereo not drawn) |
| 1 |  | Cc1cc(N)nc(C)c1CNC(=O)c1ccc2c(c1)[C@@H]1O[C@H]2c2ccc(Cn3cc(Cl)cn3)cc21 (single isomer, unassigned) [Example 179] |
| 0.759 |  | N=C(N)c1cc(F)c(CNC(=O)c2ccc3c(c2)[C@@H]2O[C@H]3c3ccc(C4CC4)cc32)c(F)c1 (single isomer, unassigned) [Example 280] |
| 186 |  | Cc1cc(N)nc(C)c1CNC(=O)c1ccc2c(c1)[C@@H]1O[C@H]2c2ccc(N(c3cccc(F)c3)S(C)(=O)=O)cc21 (single isomer, unassigned) [Example 260] |
| 1 |  | CCc1cc2c(cc1CC)[C@H]1O[C@@H]2c2ccc(C(=O)NCc3ccc(C(=N)N)cc3)cc21 (single isomer, unassigned) [Example 392] |
| 1 |  | N=C(N)c1ccc(CNC(=O)c2ccc3c(c2)[C@@H]2O[C@H]3c3ccc(-c4ccc(F)cc4)cc32)c(F)c1 (single isomer, unassigned) [Example 329] |
| 12 |  | C=C(C)c1cc(N)nc(C)c1CNC(=O)c1ccc2c(c1)[C@@H]1O[C@H]2c2ccc(-c3ccc(F)cc3F)cc21 (single isomer, unassigned) [Example 227] |
| 200000 |  | Nc1cc(C2CC2)c(CNC(=O)c2ccc3c(c2)[C@@H]2O[C@H]3c3ccc(-c4ccc(F)cc4F)cc32)c(C2CC2)n1 (single isomer, unassigned) [Example 257] |
| 10000 |  | Nc1nccc2cc(Cl)c(CNC(=O)c3ccc4c(c3)[C@@H]3O[C@H]4c4ccc(-c5ccccc5F)cc43)cc12 (single isomer, unassigned) [Example 295] |
| 2 |  | CCOc1cc(N)nc(C)c1CNC(=O)c1ccc2c(c1)C1OC2c2ccc(Cn3cc(C)cn3)cc21 (racemic) [Example 134, (±)-N-[(6-amino-4-ethoxy-2-methylpyridin-3-yl)methyl]-12-[(4-methyl-1H-pyrazol-1-yl)methyl]-15-oxatetracyclo[6.6.1.0^2,^7.0^9,1^4]-pentadeca-2,4,6,9,11,13-hexaene-4-carboxamide] |
| 34.7 |  | Cc1cc(N)nc(C)c1CNC(=O)c1ccc2c(c1)C1OC2c2ccc(-c3cc(F)c(F)cc3F)cc21 (racemic) [Example 169, (±)-N-[(6-amino-2,4-dimethylpyridin-3-yl)-methyl]-12-(2,4,5-trifluorophenyl)-15-oxatetra-cyclo [6.6.1.0^2,^7.0^9,1^4]pentadeca-2,4,6,9,11,13-hexaene-4-carboxamide] |
| 2 |  | CC(C)c1ccc2c(c1)[C@H]1O[C@@H]2c2ccc(C(=O)NCc3c(F)cc(C(=N)N)cc3F)cc21 (single isomer, unassigned) [Example 298] |
|  | 4 | (±)-N-[(6-amino-2,4- dimethylpyridin-3-yl)methyl]- 12-(4-fluorophenyl)-1,8- dimethyl-15- oxatetracyclo[6.6.1.0^2,^7.0^9,1^4] pentadeca-2,4,6,9,11,13- hexaene-4-carboxamide and (±)-N-[(6-amino-2,4- dimethylpyridin-3-yl)methyl]- 11-(4-fluorophenyl)-1,8- dimethyl-15-oxatetracyclo [6.6.1.0^2,^7.0^9,1^4]pentadeca- 2,4,6,9,11,13-hexaene-4- carboxamide [Example 339] |
| 2400 |  | COc1ccc(Cl)c(CNC(=N)c2ccc3c(c2)[C@@H]2O[C@H]3c3ccc(-c4ccc(F)cc4F)cc32)c1F (single isomer, unassigned) [Example 264] |
| 4070 |  | Nc1ncc(CNC(=O)c2ccc3c(c2)C2OC3c3ccc(-c4ccc(F)cc4F)cc32)c2ccccc12 (racemic) [Example 155, (±)-N-[(1-aminoisoquinolin-4-yl)methyl]-12-(2,4-difluorophenyl)-15-oxatetracyclo [6.6.1.0^2,^7.0^9,1^4]-pentadeca-2,4,6,9,11,13-hexaene-4-carboxamide] |
| 1580 |  | Cc1cc(N)nc(C)c1CNC(=O)c1ccc2c(c1)[C@@H]1O[C@H]2c2ccc(C(=O)N3CC4CCC(C3)O4)cc21 (single isomer, unassigned) [Example 193] |
| 234 |  | CCN(c1ccc2c(c1)[C@H]1O[C@@H]2c2ccc(C(=O)NCc3c(C)cc(N)nc3C)cc21)c1ccccc1F (single isomer, unassigned) [Example 239] |
|  | 6.55 | Cc1cc(N)nc(C)c1CNC(=O)c1ccc2c(c1)C1OC2c2cc(N3CCN(C(=O)c4ccccc4)CC3)ccc21 (stereo not drawn) |
| 83.2 |  | Cc1cc(N)nc(C)c1CNC(=O)c1ccc2c(c1)[C@@H]1O[C@H]2c2ccc(-c3ccc(F)c[n+]3[O-])cc21 (single isomer, unassigned) [Example 214] |
| 19.1 |  | Cc1cc(N)nc(C)c1CNC(=O)c1ccc2c(c1)[C@@H]1O[C@H]2c2ccc(Cc3ccccc3)cc21 (single isomer, unassigned) [Example 254] |
